What is called Ki is the dissociation constant of the complex between target and ligand, obtained from inhibition or displacement.

Entries after “also recorded” stand apart in the source; their conditions may differ.

One assay concerns the target T1, α-carbonic anhydrase of L. rhamnosus (LrhCA) (Lacticaseibacillus rhamnosus, UniProt A0A809N5C7).
T1 sequence (A0A809N5C7 1-215): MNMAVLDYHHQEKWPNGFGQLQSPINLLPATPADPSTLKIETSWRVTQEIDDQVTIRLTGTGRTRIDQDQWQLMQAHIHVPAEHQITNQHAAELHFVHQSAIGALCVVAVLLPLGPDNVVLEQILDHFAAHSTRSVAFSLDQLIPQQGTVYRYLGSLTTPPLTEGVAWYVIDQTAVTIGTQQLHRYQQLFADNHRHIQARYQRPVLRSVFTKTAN
Description: Sulfonamide inhibition of LrhCA, stopped-flow CO2 hydrase assay. Particulars: Ki LrhCA. The class given is biochemical, Lactobacillus rhamnosus GG.
In turn, `NS(=O)(=O)Cc1noc2ccccc12` [ZNS, reference compound] gave an inhibition constant (Ki) of 8.95 µM.

`NS(=O)(=O)c1ccc(C(=O)O)cc1` [compound 18] displayed a Ki of 2.71 µM.

Regarding `Nc1cc(C(F)(F)F)c(S(N)(=O)=O)cc1S(N)(=O)=O` [compound 11], the Ki came to 7.56 µM.

`Nc1ccc(S(=O)(=O)Nc2nnc(S(N)(=O)=O)s2)cc1` came in with a Ki of 0.319 µM.

For the molecule `CCN[C@H]1CN(CCCOC)S(=O)(=O)c2sc(S(N)(=O)=O)cc21` [BRZ, brinzolamide, reference compound], the inhibition constant (Ki) is 0.433 µM.

Regarding `CC1(C)O[C@@H]2[C@@H](CO[C@@]3(COS(N)(=O)=O)OC(C)(C)O[C@@H]23)O1` [TPM, topiramate, reference compound], affinity was put at a Ki of 0.508 µM.

`NS(=O)(=O)c1ccc(N2CCCCS2(=O)=O)cc1` [SLT, reference compound] registered a Ki of 9.31 µM.

`Cc1onc(-c2ccccc2)c1-c1ccc(S(N)(=O)=O)cc1` [VLX, valdecoxib, reference compound] returned a Ki above 10 µM.

`Nc1ccc(S(N)(=O)=O)cc1Cl` [compound 8] came in with an inhibitory constant (Ki) of 8.98 µM.

For the molecule `NS(=O)(=O)c1ccc(S(=O)(=O)Nc2cccc3c(Cl)c[nH]c23)cc1` [IND, indisulam, reference compound], the Ki is above 10 µM.

On to `Nc1nccc(Nc2ccc(S(N)(=O)=O)cc2)n1` [compound 19], for which affinity was put at a Ki of 4.41 µM.

For `CC(=O)/N=c1/sc(S(N)(=O)=O)nn1C` [MZA, methazolamide, reference compound], the Ki stood at 0.837 µM.

In the case of `O=C1NS(=O)(=O)c2ccccc21` [SAC, saccharin, reference compound], the inhibitory constant (Ki) was above 10 µM.

`Nc1ccc(S(N)(=O)=O)cc1Br` [compound 9, 3-bromo-4-amino-benzenesulfonamide] yielded a Ki above 10 µM.

Regarding `NS(=O)(=O)c1ccc(CO)cc1` [compound 16], the affinity, expressed as Ki, was 6.01 µM.

For the molecule `Nc1cc(Cl)c(S(N)(=O)=O)cc1S(N)(=O)=O` [compound 12], the affinity, expressed as Ki, was 7.93 µM.

`Nc1nnc(S(N)(=O)=O)s1` [compound 13, 5-amino-1,3,4-thiadizole-2-sulfonamide] showed an inhibitory constant (Ki) of 0.866 µM.

For `NS(=O)(=O)c1nnc(NS(=O)(=O)c2ccccc2)s1` [BZA, benzolamide, reference compound], the Ki was determined as 0.387 µM.

In turn, `Cc1ccc(S(N)(=O)=O)cc1` [compound 4] came in with an inhibition constant Ki of 5.6 µM.

Still in this assay, the particulars now being: stopped-flow CO2 hydrase assay; mean from three different assays, errors 5–10%; recombinant LrhCA; 15 min preincubation at room temperature; read-out: Ki LrhCA.
“4-(4-sulfanilyl-aminomethyl)-benzenesulfonamide [compound 23]”: the Ki was 0.487 µM.

Regarding `NS(=O)(=O)c1cccc(S(N)(=O)=O)c1` [compound 3], the inhibition constant (Ki) was determined as 3.02 µM.

In the case of `NS(=O)(=O)c1cc(Cl)cc(Cl)c1O` [compound 10], the Ki is 5.03 µM.

On to `Nc1ccc(S(=O)(=O)Nc2ccc(S(N)(=O)=O)cc2)cc1` [compound 22], for which the Ki amounted to 0.559 µM.

As for `NS(=O)(=O)c1ccc(CCNS(=O)(=O)c2ccc([N+](=O)[O-])cc2CO)cc1`, the inhibition constant (Ki) was found to be 0.378 µM.

On to `NS(=O)(=O)c1cc2c(cc1Cl)NCNS2(=O)=O` [HCT, hydrochlorothiazide, reference compound], for which the inhibition constant (Ki) is above 10 µM.

As to “4-(2-hydroxymethyl-4-nitrophenyl-sulfonamido)ethylbenzenesulfonamide [compound 24]”, the Ki worked out at 0.403 µM.

Consider `NCc1ccc(S(N)(=O)=O)cc1` [compound 5, 4-aminomethyl-benzenesulfonamides], for which the Ki is above 10 µM.

Another assay has as its target hCA I (human carbonic anhydrase isozyme I).
Experiment: not given
Particulars: human recombinant isozyme; stopped-flow CO2 hydrase assay; data published previously, ref Supuran [2008]; cited from earlier work.
`NS(=O)(=O)c1cccc(S(N)(=O)=O)c1` [compound 3]: the inhibition constant (Ki) was 0.079 µM.

With `O=C1NS(=O)(=O)c2ccccc21` [SAC, saccharin, reference compound], the inhibition constant Ki is 18.5 µM.

As for `Cc1ccc(S(N)(=O)=O)cc1` [compound 4], the Ki was 78.5 µM.

The next assay deals with L. rhamnosus GG. Description: In vitro inhibition assay with acetazolamide: growth of L. rhamnosus GG culture (OD595). Particulars: AAZ 1 nM to 10 mM in MRS, 37 °C, anaerobic and aerobic, 96 h, OD595 at 0, 24, 48, 72, 96 h.
Regarding `CC(=O)Nc1nnc(S(N)(=O)=O)s1` [AAZ, acetazolamide], the “Effect of acetazolamide on cell growth of L. rhamnosus GG (OD595)” value (from here on “Effect of acetazolamide”) is listed as “very little or no inhibitory effect on cell growth; also recorded: no significant effect on the growth”.

Still in this assay, the particulars now being: AAZ 1 nM to 10 mM in MRS, 37 °C, anaerobic and aerobic, 96 h, OD595 at 0, 24, 48, 72, 96 h; listed as Acetazolamide.
As to `CC(=O)Nc1nnc(S(N)(=O)=O)s1` [AAZ, acetazolamide], the “Effect of acetazolamide” value was “marginal inhibitory effect on cell growth”.

Staying with this assay, now noted: AAZ 1 nM to 10 mM in MRS, 37 °C, anaerobic and aerobic, 96 h, OD595 at 0, 24, 48, 72, 96 h; listed as acetazolamide.
For the molecule `CC(=O)Nc1nnc(S(N)(=O)=O)s1` [AAZ, acetazolamide], the “Effect of acetazolamide” value is on record as “no significant effect on cell growth”.

These data come from paper PMC9200688, “The production and biochemical characterization of α-carbonic anhydrase from Lactobacillus rhamnosus GG” (Applied Microbiology and Biotechnology, 2022).
